Data as given in patent US10391201B2, “Gene therapy” (Ospedale San Raffaele S.r.l., priority 2014, dated 2019).

How the values were obtained:
[1] = tested on: cord blood (CB)-derived CD34+ cells; assay type: cell-based, human; conditions: CB-derived CD34+ HSPC; MOI 1; 20 μm FK506, 5 mM 3-MA alone or with 10 μM CsA / 10 μg/mL rapamycin
Procedure: (§1) Human CB and BM-derived haematopoietic stem/progenitor cells (HSPC) were cultured in serum-free StemSpan medium (StemCell Technologies) supplemented with 100 ng/mL recombinant human stem cell factor (rhSCF), 20 ng/mL recombinant human thrombopoietin (rhTPO), 100 ng/mL recombinant human Flt3 ligand (rhFlt3) and 20 ng/mL recombinant human IL6 (rhIL6) (all from Peprotech) 16 to 24 hours prior to transduction. HSPC were then transduced at a concentration of 1×10^6 cells per mL with vesicular stomatitis virus glycoprotein (VSV-G)-pseudotyped SINLV for 20 hours at the indicated multiplicity of infection (MOI) in the same medium. After transduction, cells were washed and maintained serum-free StemSpan supplemented with cytokines as above until the reading of GFP-positive (GFP+) cells by FACS. After FACS they were maintained in Roswell Park Memorial Institute medium (RPMI, Lonza) supplemented with 10% FBS, 25 ng/mL rhSCF, 5 ng/mL rhIL6, 25 ng/mL rhFlt3 and 5 ng/mL rhTPO for another seven days before analysis of vector copy numbers. MDM were transduced 7 days after differentiation. T lymphocytes were transduced at a concentration of 10^6 cells per mL, after 3 days of stimulation. All the cells were exposed to the vector for 16-20 hours.
(§2) They were added to the transduction medium at the indicated concentration and washed out with the vector 16-20 hours later.
(§3) GFP expression in transduced cells was measured 5-7 days post-transduction. Adherent MDM were detached by scraping in 5 mM PBS-EDTA, washed and resuspended in PBS containing 2% FBS. Cells grown in suspension were washed and resuspended in PBS containing 2% FBS. To exclude dead cells from the analysis, 10 ng/mL 7-aminoactinomycin D (7-AAD) was added.
(§4) DNA from cell cultures was extracted using a Maxwell 16 instrument (Promega) or Blood & Cell Culture DNA Micro Kit (Qiagen). To amplify the vector sequence, primers and probes complementary to the vector Rev responsive element sequence were used. Vector copy numbers and replication intermediates were normalised to genomic DNA content, which was assessed using the human TERT gene. Quantitative polymerase chain reaction (qPCR) primers and probe sequences and conditions were previously described (Santoni de Sio, F. R. et al (2006) Blood 107: 4257-65).

[2] = tested on: bone marrow (BM)-derived CD34+ cells; assay type: cell-based, human; conditions: BM-derived CD34+ HSPC; MOI 1; 20 μm FK506, 5 mM 3-MA alone or with 10 μM CsA / 10 μg/mL rapamycin
Procedure: as §1, §2, §3, §4

`Cn1cnc(N)c2ncnc1-2` [3-MA, 3-methyladenine] was tested, and the “impact on LV transduction efficiency (in words)” value [1] was “little or no effect” and the “impact on LV transduction efficiency (in words)” value [2] was “little or no effect”.
